Experimental data: ChEMBL document CHEMBL1157971, “Euphoportlandols A and B, tetracylic diterpene polyesters from Euphorbia portlandica and their anti-MDR effects in cancer cells” (J Nat Prod, 2006)

Columns and labels:
Assay type in all cases: cell-based
[1] = target: T1, ATP-dependent translocase ABCB1 (Homo sapiens, UniProt P08183); experiment: Inhibition of human MDR1-mediated rhodamine efflux in mouse L5178 cells assessed as mean fluorescence intensity at 4 ug/mL by flow cytometry
[2] = target: T1, ATP-dependent translocase ABCB1; experiment: Inhibition of human MDR1-mediated rhodamine efflux in mouse L5178 cells assessed as mean fluorescence intensity at 40 ug/mL by flow cytometry
[3] = target: T1, ATP-dependent translocase ABCB1; experiment: Inhibition of human MDR1-mediated rhodamine efflux in mouse L5178 cells assessed as fluorescence activity ratio at 4 ug/mL by flow cytometry relative to untreated control
[4] = target: T1, ATP-dependent translocase ABCB1; experiment: Inhibition of human MDR1-mediated rhodamine efflux in mouse L5178 cells assessed as fluorescence activity ratio at 40 ug/mL by flow cytometry relative to untreated control

T1 sequence (P08183 whole entry): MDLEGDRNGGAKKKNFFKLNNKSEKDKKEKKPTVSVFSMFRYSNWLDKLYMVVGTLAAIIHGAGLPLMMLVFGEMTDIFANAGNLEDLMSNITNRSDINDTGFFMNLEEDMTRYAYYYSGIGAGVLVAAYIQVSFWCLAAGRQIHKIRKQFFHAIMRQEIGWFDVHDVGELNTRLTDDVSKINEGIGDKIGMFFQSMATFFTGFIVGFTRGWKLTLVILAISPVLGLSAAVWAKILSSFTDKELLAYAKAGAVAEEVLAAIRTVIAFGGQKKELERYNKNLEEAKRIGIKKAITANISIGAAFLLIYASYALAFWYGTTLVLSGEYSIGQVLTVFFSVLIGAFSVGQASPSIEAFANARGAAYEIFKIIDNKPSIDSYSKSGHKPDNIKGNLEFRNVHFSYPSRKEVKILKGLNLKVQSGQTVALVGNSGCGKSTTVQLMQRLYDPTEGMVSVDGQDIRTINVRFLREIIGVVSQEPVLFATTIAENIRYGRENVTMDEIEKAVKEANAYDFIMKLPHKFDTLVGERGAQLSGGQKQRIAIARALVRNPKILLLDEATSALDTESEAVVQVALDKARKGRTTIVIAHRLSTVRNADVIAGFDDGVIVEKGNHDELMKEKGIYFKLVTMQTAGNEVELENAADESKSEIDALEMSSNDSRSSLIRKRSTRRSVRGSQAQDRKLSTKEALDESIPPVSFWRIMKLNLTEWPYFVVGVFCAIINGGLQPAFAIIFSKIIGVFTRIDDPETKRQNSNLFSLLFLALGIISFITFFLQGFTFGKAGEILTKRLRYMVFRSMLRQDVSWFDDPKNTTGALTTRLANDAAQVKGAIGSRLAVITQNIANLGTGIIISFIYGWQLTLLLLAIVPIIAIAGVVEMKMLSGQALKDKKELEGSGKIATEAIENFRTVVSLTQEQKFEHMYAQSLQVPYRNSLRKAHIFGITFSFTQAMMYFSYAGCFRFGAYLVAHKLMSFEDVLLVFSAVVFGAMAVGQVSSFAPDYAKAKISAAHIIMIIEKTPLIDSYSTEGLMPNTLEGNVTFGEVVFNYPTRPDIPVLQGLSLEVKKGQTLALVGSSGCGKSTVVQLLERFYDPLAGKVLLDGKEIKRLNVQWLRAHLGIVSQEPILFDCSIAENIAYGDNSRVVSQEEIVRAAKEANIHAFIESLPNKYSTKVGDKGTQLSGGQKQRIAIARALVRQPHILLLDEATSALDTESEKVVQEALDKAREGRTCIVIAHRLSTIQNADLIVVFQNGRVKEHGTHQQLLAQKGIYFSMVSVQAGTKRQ

Structure (SMILES)	Flu intensity [1]	Flu intensity [2]	Ratio [3]	Ratio [4]
CC(=O)OC1[C@@]2(C)[C@@H]3[C@@H](C[C@]1(O)[C@H](OC(C)=O)[C@H]1[C@@H](OC(=O)c4ccccc4)[C@@H](C)C[C@]1(O)[C@@H]2OC(C)=O)C(=O)C(C)(C)[C@H]3OC(C)=O (stereo partly drawn) [EUPHOPORTLANDOL B]	30.8	670.5	1.4	30.7
CC(=O)OC1[C@]2(O)CC3=C([C@H](OC(C)=O)C(C)(C)C3=O)[C@@]1(C)[C@@H](OC(C)=O)[C@@]1(O)C[C@H](C)[C@H](OC(=O)c3ccccc3)[C@@H]1[C@H]2OC(C)=O (stereo partly drawn) [EUPHOPORTLANDOL A]	49.8	880.2	2.3	40.3
